Data from US6479435B1, “Diaryl ethers and processes for their preparation and herbicidal and desiccant compositions containing them” (ISK Americas Incorporated, priority 1997, dated 2002).

Key:
Format in all cases: in vivo
[1] = test system: Johnsongrass (Sorghum halepense, SORHA); assay: Pre-emerge greenhouse herbicide test, phytotoxicity rating; conditions: 14 days after application, rating scale 0-100
Method in brief: (§1)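 Seeds sown in sandy loam one day before track-sprayer application of acetone solutions at 125–1000 g ai/ha (187 l/ha), then surface-watered to incorporate and bottom-watered. Injury scored visually at 14 days on a 0–100 scale (0 no damage, 100 complete death).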

[2] = test system: barnyardgrass (Echinochloa crusgalli, ECHCG); assay: as above; conditions: 14 days after application, rating scale 0-100
Method in brief: as §1

[3] = test system: common ragweed (Ambrosia artemisiifolia L., AMBEL); assay: as above; conditions: 14 days after application, rating scale 0-100
Method in brief: as §1

[4] = test system: green foxtail (Setaria viridis, SETVI); assay: as above; conditions: 14 days after application, rating scale 0-100
Method in brief: as §1

[5] = test system: ivyleaf morningglory (Ipomoea hederacea, IPOHE); assay: as above; conditions: 14 days after application, rating scale 0-100
Method in brief: as §1

[6] = test system: lambsquarters (Chenopodium album, CHEAL); assay: as above; conditions: 14 days after application, rating scale 0-100
Method in brief: as §1

[7] = test system: large crabgrass (Digitaria sanguinalis, DIGSA); assay: as above; conditions: 14 days after application, rating scale 0-100
Method in brief: as §1

[8] = test system: redroot pigweed (Amaranthus retroflexus, AMARE); assay: as above; conditions: 14 days after application, rating scale 0-100
Method in brief: as §1

[9] = test system: sicklepod (Cassia obtusifolia, CASOB); assay: as above; conditions: 14 days after application, rating scale 0-100
Method in brief: as §1

[10] = test system: velvetleaf (Abutilon theophrasti, ABUTH); assay: as above; conditions: 14 days after application, rating scale 0-100
Method in brief: as §1

[11] = test system: field corn (Zea mays L., var. Dekalb 535, CORN); assay: Pre-emerge greenhouse test, crop damage rating; conditions: 14 days after application, rating scale 0-100
Method in brief: as §1

[12] = test system: upland rice (Oryza sp., var.Tebonnet, RICE); assay: Pre-emerge greenhouse test, crop damage rating; conditions: 14 days after application, rating scale 0-100
Method in brief: as §1

[13] = test system: soybean (Glycine max L., var. Pella 86, SOY); assay: Pre-emerge greenhouse test, crop damage rating; conditions: 14 days after application, rating scale 0-100
Method in brief: as §1

[14] = test system: common ragweed (Ambrosia artemisiifolia L., AMBEL); assay: Post-emerge greenhouse herbicide test, phytotoxicity rating; conditions: 14 days after application
Method in brief: (§2)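 Plants at the 2-3 leaf stage, sown 8-21 days earlier, were track-sprayed post-emergence with compound in acetone plus 0.25% v/v non-ionic surfactant at 63-1000 g ai/ha (187 l/ha). Damage was rated at 14 days on a 0-100 scale (0 none, 100 all plants dead), for both crop injury and weed control.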

[15] = test system: Johnsongrass (Sorghum halepense, SORHA); assay: as above; conditions: 14 days after application
Method in brief: as §2

[16] = test system: barnyardgrass (Echinochloa crusgalli, ECHCG); assay: as above; conditions: 14 days after application
Method in brief: as §2

[17] = test system: green foxtail (Setaria viridis, SETVI); assay: as above; conditions: 14 days after application
Method in brief: as §2

[18] = test system: ivyleaf morningglory (Ipomoea hederacea, IPOHE); assay: as above; conditions: 14 days after application
Method in brief: as §2

[19] = test system: lambsquarters (Chenopodium album, CHEAL); assay: as above; conditions: 14 days after application
Method in brief: as §2

[20] = test system: large crabgrass (Digitaria sanguinalis, DIGSA); assay: as above; conditions: 14 days after application
Method in brief: as §2

[21] = test system: redroot pigweed (Amaranthus retroflexus, AMARE); assay: as above; conditions: 14 days after application
Method in brief: as §2

[22] = test system: sicklepod (Cassia obtusifolia, CASOB); assay: as above; conditions: 14 days after application
Method in brief: as §2

[23] = test system: velvetleaf (Abutilon theophrasti, ABUTH); assay: as above; conditions: 14 days after application
Method in brief: as §2

[24] = test system: field corn (Zea mays L., var. Dekalb 535, CORN); assay: Post-emerge greenhouse test, crop damage rating; conditions: 14 days after application
Method in brief: as §2

[25] = test system: upland rice (Oryza sp., var.Tebonnet, RICE); assay: Post-emerge greenhouse test, crop damage rating; conditions: 14 days after application
Method in brief: as §2

[26] = test system: soybean (Glycine max L., var. Pella 86, SOY); assay: Post-emerge greenhouse test, crop damage rating; conditions: 14 days after application
Method in brief: as §2

SMILES: O=c1n(-c2cc(Oc3ccc([N+](=O)[O-])cc3C(F)(F)F)c(Cl)cc2F)c(=S)n2n1CCCC2 [Compound 8-14]
- phytotoxicity rating SORHA ([1]; 125 g ai/ha): 0
- phytotoxicity rating SORHA ([1]; 500 g ai/ha): 0
- phytotoxicity rating ECHCG ([2]; 125 g ai/ha): 0
- phytotoxicity rating ECHCG ([2]; 500 g ai/ha): 0
- phytotoxicity rating AMBEL ([3]; 125 g ai/ha): 0
- phytotoxicity rating AMBEL ([3]; 500 g ai/ha): 30
- phytotoxicity rating SETVI ([4]; 125 g ai/ha): 0
- phytotoxicity rating SETVI ([4]; 500 g ai/ha): 50
- phytotoxicity rating IPOHE ([5]; 125 g ai/ha): 0
- phytotoxicity rating IPOHE ([5]; 500 g ai/ha): 0
- phytotoxicity rating CHEAL ([6]; 125 g ai/ha): 80
- phytotoxicity rating CHEAL ([6]; 500 g ai/ha): 100
- phytotoxicity rating DIGSA ([7]; 125 g ai/ha): 0
- phytotoxicity rating DIGSA ([7]; 500 g ai/ha): 20
- phytotoxicity rating AMARE ([8]; 125 g ai/ha): 70
- phytotoxicity rating AMARE ([8]; 500 g ai/ha): 95
- phytotoxicity rating CASOB ([9]; 125 g ai/ha): 0
- phytotoxicity rating CASOB ([9]; 500 g ai/ha): 0
- phytotoxicity rating ABUTH ([10]; 125 g ai/ha): 30
- phytotoxicity rating ABUTH ([10]; 500 g ai/ha): 60
- crop damage rating CORN ([11]; 125 g ai/ha): 0
- crop damage rating CORN ([11]; 500 g ai/ha): 0
- crop damage rating RICE ([12]; 125 g ai/ha): 0
- crop damage rating RICE ([12]; 500 g ai/ha): 0
- crop damage rating SOY ([13]; 125 g ai/ha): 0
- crop damage rating SOY ([13]; 500 g ai/ha): 0
- AMBEL phytotoxicity rating (0-100) ([14]; 63 g al/ha): 40
- AMBEL phytotoxicity rating (0-100) ([14]; 500 g al/ha): 60
- SORHA phytotoxicity rating (0-100) ([15]; 63 g al/ha): 0
- SORHA phytotoxicity rating (0-100) ([15]; 500 g al/ha): 0
- ECHCG phytotoxicity rating (0-100) ([16]; 63 g al/ha): 0
- ECHCG phytotoxicity rating (0-100) ([16]; 500 g al/ha): 0
- SETVI phytotoxicity rating (0-100) ([17]; 63 g al/ha): 30
- SETVI phytotoxicity rating (0-100) ([17]; 500 g al/ha): 20
- IPOHE phytotoxicity rating (0-100) ([18]; 63 g al/ha): 80
- IPOHE phytotoxicity rating (0-100) ([18]; 500 g al/ha): 85
- CHEAL phytotoxicity rating (0-100) ([19]; 63 g al/ha): 80
- CHEAL phytotoxicity rating (0-100) ([19]; 500 g al/ha): 90
- DIGSA phytotoxicity rating (0-100) ([20]; 63 g al/ha): 0
- DIGSA phytotoxicity rating (0-100) ([20]; 500 g al/ha): 0
- AMARE phytotoxicity rating (0-100) ([21]; 63 g al/ha): 70
- AMARE phytotoxicity rating (0-100) ([21]; 500 g al/ha): 90
- CASOB phytotoxicity rating (0-100) ([22]; 63 g al/ha): 40
- CASOB phytotoxicity rating (0-100) ([22]; 500 g al/ha): 30
- ABUTH phytotoxicity rating (0-100) ([23]; 63 g al/ha): 95
- ABUTH phytotoxicity rating (0-100) ([23]; 500 g al/ha): 95
- CORN crop damage rating (0-100) ([24]; 63 g al/ha): 5
- CORN crop damage rating (0-100) ([24]; 500 g al/ha): 5
- RICE crop damage rating (0-100) ([25]; 63 g al/ha): 0
- RICE crop damage rating (0-100) ([25]; 500 g al/ha): 0
- SOY crop damage rating (0-100) ([26]; 63 g al/ha): 30
- SOY crop damage rating (0-100) ([26]; 500 g al/ha): 30
